Reference: PubChem BioAssay (NCI)
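Following 48 hours of exposure in 96-well plates, responses at five concentrations were used to interpolate endpoints linearly. GI50 = concentration required for 50% inhibition of growth. The concentration for full growth arrest is given as TGI.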

Assays:
Test in all cases: growth of human tumour cells (NCI), 48 h; in the data active means GI50 below about 0.43 µM; inactive means the rest
[1] = test system: 786-0 renal
[2] = test system: A498 renal
[3] = test system: A549 NSCLC
[4] = test system: ACHN renal
[5] = test system: BT-549 breast
[6] = test system: CAKI-1 renal
[7] = test system: CCRF-CEM leukemia
[8] = test system: COLO 205 colon
[9] = test system: DU-145 prostate
[10] = test system: EKVX NSCLC
[11] = test system: HCC-2998 colon
[12] = test system: HCT-116 colon
[13] = test system: HCT-15 colon
[14] = test system: HL-60(TB) leukemia
[15] = test system: HOP-62 NSCLC
[16] = test system: HOP-92 NSCLC
[17] = test system: HS 578T breast
[18] = test system: HT29 colon
[19] = test system: IGROV1 ovarian
[20] = test system: K-562 leukemia
[21] = test system: KM12 colon
[22] = test system: LOX IMVI melanoma
[23] = test system: M14 melanoma
[24] = test system: MALME-3M melanoma
[25] = test system: MCF7 breast
[26] = test system: MDA-MB-231 breast
[27] = test system: MDA-MB-435
[28] = test system: MOLT-4 leukemia
[29] = test system: NCI-H226 lung
[30] = test system: NCI-H23 lung
[31] = test system: NCI-H460 lung
[32] = test system: NCI-H522 lung
[33] = test system: NCI/ADR-RES ovarian
[34] = test system: OVCAR-3 ovarian
[35] = test system: OVCAR-4 ovarian
[36] = test system: OVCAR-5 ovarian
[37] = test system: OVCAR-8 ovarian
[38] = test system: PC-3 prostate
[39] = test system: RPMI-8226 leukemia
[40] = test system: RXF 393 renal
[41] = test system: SF-268 CNS
[42] = test system: SF-295 CNS
[43] = test system: SF-539 CNS
[44] = test system: SK-MEL-2 melanoma
[45] = test system: SK-MEL-28 melanoma
[46] = test system: SK-MEL-5 melanoma
[47] = test system: SK-OV-3 ovarian
[48] = test system: SN12C renal
[49] = test system: SNB-19 CNS
[50] = test system: SNB-75 CNS
[51] = test system: SW-620 colon
[52] = test system: TK-10 renal
[53] = test system: U251 CNS
[54] = test system: UACC-257 melanoma
[55] = test system: UACC-62 melanoma
[56] = test system: UO-31 renal
[57] = test system: T-47D breast

N=C(N)c1ccc(-c2ccc(-c3ccccc3)o2)o1
inactive: GI50 [1] 1.74 µM | GI50 [2] 3.03 µM | GI50 [3] 3.55 µM | GI50 [4] 2.56 µM | GI50 [5] 4.12 µM | GI50 [6] 3.4 µM | GI50 [7] 3.58 µM | GI50 [8] 1.78 µM | GI50 [9] 3.3 µM | GI50 [10] 2.34 µM | GI50 [11] 1.61 µM | GI50 [12] 2.06 µM | GI50 [13] 1.16 µM | GI50 [14] 2.18 µM | GI50 [15] 3.59 µM | GI50 [16] 1.85 µM | GI50 [17] 3.81 µM | GI50 [18] 2.11 µM | GI50 [19] 2.89 µM | GI50 [20] 0.657 µM | GI50 [21] 2.61 µM | GI50 [22] 1.7 µM | GI50 [23] 1.62 µM | GI50 [24] 1.75 µM | GI50 [25] 1.68 µM | GI50 [26] 2.04 µM | GI50 [27] 0.999 µM | GI50 [28] 3.31 µM | GI50 [29] 5.7 µM | GI50 [30] 5.78 µM | GI50 [31] 2.45 µM | GI50 [32] 1.94 µM | GI50 [33] 2.82 µM | GI50 [34] 3.13 µM | GI50 [35] 3.48 µM | GI50 [36] 2.7 µM | GI50 [37] 4 µM | GI50 [38] 2.64 µM | GI50 [39] 2.89 µM | GI50 [40] 2.33 µM | GI50 [41] 2.98 µM | GI50 [42] 1.81 µM | GI50 [43] 1.95 µM | GI50 [44] 2.25 µM | GI50 [45] 1.9 µM | GI50 [46] 1.75 µM | GI50 [47] 4.3 µM | GI50 [48] 3.12 µM | GI50 [49] 3.01 µM | GI50 [50] 1.6 µM | GI50 [51] 1.79 µM | GI50 [52] 3.32 µM | GI50 [53] 2.22 µM | GI50 [54] 2.52 µM | GI50 [55] 1.93 µM | GI50 [56] 1.54 µM
3.53 µM: TGI [24]
15.3 µM: TGI [15]
11.6 µM: TGI [9]
4.7 µM: TGI [18]
4.22 µM: TGI [13]
16 µM: TGI [5] | TGI [47]
4.03 µM: TGI [42]
14.2 µM: TGI [6]
3.18 µM: TGI [20]
9.93 µM: TGI [21]
16.9 µM: TGI [37]
3.25 µM: TGI [11]
3.13 µM: TGI [56]
11.9 µM: TGI [34]
6.35 µM: TGI [54]
5.82 µM: TGI [31]
4.12 µM: TGI [50]
2.39 µM: TGI [27]
6.55 µM: TGI [40]
10.2 µM: TGI [28]
3.34 µM: TGI [22]
5.29 µM: TGI [12]
11.4 µM: TGI [52]
11.7 µM: TGI [2] | TGI [3]
24.2 µM: TGI [29]
3.54 µM: TGI [1]
4.9 µM: TGI [26]
8.21 µM: TGI [39]
6.73 µM: TGI [4]
12.3 µM: TGI [41]
12.4 µM: TGI [7]
14.5 µM: TGI [35]
3.49 µM: TGI [8]
4.73 µM: TGI [16]
4.2 µM: TGI [44] | TGI [51]
3.89 µM: TGI [32]
11 µM: TGI [33]
4.41 µM: TGI [45]
21.2 µM: TGI [17]
5.61 µM: TGI [25]
3.19 µM: TGI [46]
10.1 µM: TGI [38] | TGI [49]
11.8 µM: TGI [19]
19.8 µM: TGI [30]
9.37 µM: TGI [10]
5.12 µM: TGI [53]
3.4 µM: TGI [23]
3.82 µM: TGI [55]
10.9 µM: TGI [36]
10.3 µM: TGI [48]
4.43 µM: TGI [43]
5.2 µM: TGI [14]

COc1cc2c(cc1OC)-c1c(c3ccc([N+](=O)[O-])cc3c(=O)n1CCCBr)C2=O
85.1 µM: TGI [29]
67.7 µM: TGI [7]
81.1 µM: TGI [24]
active: GI50 [7] 0.425 µM | GI50 [25] 0.0985 µM
26.7 µM: TGI [23]
67.5 µM: TGI [30]
10.2 µM: TGI [14]
36.8 µM: TGI [4]
23.7 µM: TGI [46]
> 100 µM: TGI [1] | TGI [2] | TGI [3] | TGI [5] | TGI [6] | TGI [8] | TGI [9] | TGI [10] | TGI [11] | TGI [12] | TGI [13] | TGI [15] | TGI [16] | TGI [17] | TGI [18] | TGI [19] | TGI [20] | TGI [21] | TGI [25] | TGI [26] | TGI [27] | TGI [28] | TGI [31] | TGI [32] | TGI [33] | TGI [34] | TGI [35] | TGI [36] | TGI [37] | TGI [38] | TGI [39] | TGI [40] | TGI [41] | TGI [42] | TGI [43] | TGI [44] | TGI [45] | TGI [47] | TGI [48] | TGI [49] | TGI [51] | TGI [57] | TGI [52] | TGI [53] | TGI [54] | TGI [56]
42.4 µM: TGI [22]
75.4 µM: TGI [55]
inactive: GI50 [1] 2.93 µM | GI50 [2] 43.6 µM | GI50 [3] 28.9 µM | GI50 [4] 1.18 µM | GI50 [5] > 100 µM | GI50 [6] 0.513 µM | GI50 [8] > 100 µM | GI50 [9] 24.5 µM | GI50 [10] > 100 µM | GI50 [11] 59.7 µM | GI50 [12] 4.31 µM | GI50 [13] 61.8 µM | GI50 [14] 1.31 µM | GI50 [15] 20.7 µM | GI50 [16] > 100 µM | GI50 [17] > 100 µM | GI50 [18] 61.9 µM | GI50 [19] 51.8 µM | GI50 [20] 5.2 µM | GI50 [21] 29.8 µM | GI50 [22] 3.9 µM | GI50 [23] 2.39 µM | GI50 [24] 9.72 µM | GI50 [26] 96.4 µM | GI50 [27] 25.4 µM | GI50 [28] 0.461 µM | GI50 [29] 22.7 µM | GI50 [30] 3.32 µM | GI50 [31] 0.573 µM | GI50 [32] 6.41 µM | GI50 [33] 5.91 µM | GI50 [34] 71.1 µM | GI50 [35] 34.1 µM | GI50 [36] > 100 µM | GI50 [37] 38.5 µM | GI50 [38] 59 µM | GI50 [39] 3.33 µM | GI50 [40] 44.3 µM | GI50 [41] 29 µM | GI50 [42] 9.07 µM | GI50 [43] 10.4 µM | GI50 [44] > 100 µM | GI50 [45] > 100 µM | GI50 [46] 1.72 µM | GI50 [47] 60.5 µM | GI50 [48] 4.31 µM | GI50 [49] 33.3 µM | GI50 [51] 21.8 µM | GI50 [57] 0.731 µM | GI50 [52] > 100 µM | GI50 [53] 5.14 µM | GI50 [54] 37.2 µM | GI50 [55] 2.83 µM | GI50 [56] 5.23 µM
